The target of test [1] is T1, HsKRS (Homo sapiens, UniProt Q15046).
T1 construct: gene KARS1
Nature of the test: biochemical. Further details: HsKRS lysine activation, pyrophosphate release with BIOMOL Green absorbance at 650 nm. The note with it: read-out: HsKRS pIC50 (converted). The method, then:
(§1) PfKRS assay wells contained PfKRS assay buffer (100 mM Hepes; pH 7.4, 100 mM NaCl, 20 mM MgCl2, 0.01% (v/v) Igepal and 1 mM DTT) plus 20 nM PfKRS, 200 μM ATP, 400 μM L-lysine, and 0.5 U/mL pyrophosphatase. HsKRS reactions contained HsKRS assay buffer (30 mM Tris; pH 8, 140 mM NaCl, 40 mM MgCl2, 30 mM KCl, 0.01% (v/v) Brij and 1 mM DTT) plus 400 nM HsKRS, 3.5 μM ATP, 6 μM L-lysine, and 0.5 U/mL pyrophosphatase. Assays were performed by adding 25 μL of assay buffer with enzyme to all assay wells, before the reaction was initiated with the addition of a 25 μL substrate mixture containing L-lysine, ATP, and pyrophosphatase (a substrate mix with L-lysine omitted was added to “no lysine” control wells on each assay plate). Following a 6 h (PfKRS) or 3 h (HsKRS) reaction at RT, the assay was stopped with the addition of 50 μL BIOMOL Green. The BIOMOL Green signal was allowed to develop for 30 min before the absorbance of each well was read at 650 nm using an EnVision multilabel plate reader (PerkinElmer Life Sciences) or a PheraStar plate reader (BMG). All [compound left out] dispensing steps were carried out using a Thermo Scientific WellMate dispenser (Matrix). To generate pIC50 data for hit compounds in the PfKRS or HsKRS assays, 10-point inhibitor dose–response curves were prepared in 384-well assay plates using an ECHO 550 acoustic dispenser (Labcyte). Following preparation of the inhibitor curves, assays were carried out as described above. ActivityBase from IDBS (version 8.0.5.4) was used for data processing and analysis, with percentage inhibition values determined relative to 100% inhibition (“no-lysine” control) and 0% inhibition control wells on each plate. All IC50 curve fitting was undertaken using ActivityBase XE (version 7.7.1) from IDBS. A four-parameter logistic dose–response curve was utilized (XLfit model 203) with prefit used for all four parameters.

Test [2] has as its target T2, PfKRS (cytosolic lysyl tRNA synthetase) (Plasmodium falciparum, UniProt Q8IDJ8).
T2 construct: gene PF3D7_1350100
Nature of the test: biochemical. The conditions noted are these: read-out: PfKRS pIC50 (converted). Further details: PfKRS lysine activation, pyrophosphate release with BIOMOL Green absorbance at 650 nm. Here is the method:
as §1
Target sequence in this assay (Q8IDJ8 1-583): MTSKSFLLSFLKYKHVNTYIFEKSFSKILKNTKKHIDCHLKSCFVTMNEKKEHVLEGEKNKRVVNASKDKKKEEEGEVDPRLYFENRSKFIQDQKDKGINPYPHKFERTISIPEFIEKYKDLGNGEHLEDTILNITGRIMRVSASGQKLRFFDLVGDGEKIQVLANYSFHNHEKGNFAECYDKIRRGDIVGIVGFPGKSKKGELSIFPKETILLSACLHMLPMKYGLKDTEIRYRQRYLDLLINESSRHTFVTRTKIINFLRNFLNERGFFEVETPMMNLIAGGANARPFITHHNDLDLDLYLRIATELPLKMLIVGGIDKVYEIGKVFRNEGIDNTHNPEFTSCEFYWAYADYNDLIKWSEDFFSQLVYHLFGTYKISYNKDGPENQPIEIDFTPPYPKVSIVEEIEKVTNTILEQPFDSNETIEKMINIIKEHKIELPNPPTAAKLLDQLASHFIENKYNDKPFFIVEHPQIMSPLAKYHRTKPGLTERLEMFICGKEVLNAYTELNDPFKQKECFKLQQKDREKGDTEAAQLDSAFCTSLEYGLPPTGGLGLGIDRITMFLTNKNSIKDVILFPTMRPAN

Test [3] has as its target T2, PfKRS (cytosolic lysyl tRNA synthetase). Kind of test: isothermal thermal proteome profiling at […] °C in P. falciparum lysate. In kind it is cell-based.
Target sequence in this assay (Q8IDJ8 entry or part of it): as the sequence (Q8IDJ8 1-583) above

The structures appear in SMILES notation.

T1 sequence (Q15046 whole entry): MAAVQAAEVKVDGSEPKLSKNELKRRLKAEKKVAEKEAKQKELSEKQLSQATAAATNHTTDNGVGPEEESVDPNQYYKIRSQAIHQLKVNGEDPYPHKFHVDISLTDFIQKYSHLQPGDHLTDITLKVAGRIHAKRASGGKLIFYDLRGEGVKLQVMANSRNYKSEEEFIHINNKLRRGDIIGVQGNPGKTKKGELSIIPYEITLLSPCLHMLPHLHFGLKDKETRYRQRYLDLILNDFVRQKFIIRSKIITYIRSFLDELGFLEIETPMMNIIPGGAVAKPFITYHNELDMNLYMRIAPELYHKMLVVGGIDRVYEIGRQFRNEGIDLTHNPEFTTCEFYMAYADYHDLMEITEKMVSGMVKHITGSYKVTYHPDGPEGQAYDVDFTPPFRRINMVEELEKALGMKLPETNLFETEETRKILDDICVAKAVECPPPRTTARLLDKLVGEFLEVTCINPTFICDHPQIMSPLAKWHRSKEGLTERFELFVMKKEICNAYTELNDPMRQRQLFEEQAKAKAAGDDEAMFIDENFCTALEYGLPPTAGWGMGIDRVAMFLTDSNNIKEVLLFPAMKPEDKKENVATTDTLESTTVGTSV

Turning to `O=C(NCC1(O)CCC(F)(F)CC1)c1cc(=O)c2cc(F)ccc2o1` [DDD01510706], the values for the IC50 in test [1] and in test [2] were 20 µM and 240 nM, respectively.

`O=C(NCC1CCCCC1)c1cc(=O)c2cc(F)cc(NS(=O)(=O)c3ccccc3)c2o1` [DDD02354914]: the IC50 in test [1] is 6.31 µM; in test [2] it was 11.7 nM.

In the case of `C[C@H]1CCC[C@H](C[C@H]2Cc3cc(O)cc(O)c3C(=O)O2)O1` [cladosporin], the “isothermal thermal proteome profiling at 57 °C in P. falciparum lysate” value in test [3] is “The relative abundance of PfKRS was also significantly increased in lysates exposed to cladosporin”. Also, the IC50 was more than 100 µM in test [1] and 47.9 nM in test [2].

`[N-]=[N+]=NCCOCCOCCOCCNC(=O)c1ccc(S(=O)(=O)Nc2cc(F)cc3c(=O)cc(C(=O)NCC4CCCCC4)oc23)cc1` [linker 1]: the IC50 in test [1] is 43.7 µM; in test [2], 22.4 nM.

Source of the values: publication PMC9469095, “Toolkit of Approaches To Support Target-Focused Drug Discovery for Plasmodium falciparum Lysyl tRNA Synthetase” (ACS Infectious Diseases, 2022).
